# Patent US9453026B2, “ACC inhibitors and uses thereof” (Gilead Apollo, Inc., priority 2011, dated 2016)
# Tests used:
# [1] = biological target: ACC2 (Homo sapiens, UniProt O00763); assay: In vitro ACC2 inhibition assay (ADP-Glo); format: biochemical; conditions: read-out: ACC2
# In short: (§1)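 Enzyme (human ACC1 or ACC2) and compound, serially diluted 1:3 over 11 points from a 600 uM DMSO stock, were preincubated 15 min before substrate addition.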
# [2] = biological target: ACC1 (Homo sapiens, UniProt Q13085); assay: In vitro ACC1 inhibition assay (ADP-Glo); format: biochemical; conditions: read-out: ACC1
# In short: as §1
# Sequence of ACC2 (O00763 whole entry, species assumed): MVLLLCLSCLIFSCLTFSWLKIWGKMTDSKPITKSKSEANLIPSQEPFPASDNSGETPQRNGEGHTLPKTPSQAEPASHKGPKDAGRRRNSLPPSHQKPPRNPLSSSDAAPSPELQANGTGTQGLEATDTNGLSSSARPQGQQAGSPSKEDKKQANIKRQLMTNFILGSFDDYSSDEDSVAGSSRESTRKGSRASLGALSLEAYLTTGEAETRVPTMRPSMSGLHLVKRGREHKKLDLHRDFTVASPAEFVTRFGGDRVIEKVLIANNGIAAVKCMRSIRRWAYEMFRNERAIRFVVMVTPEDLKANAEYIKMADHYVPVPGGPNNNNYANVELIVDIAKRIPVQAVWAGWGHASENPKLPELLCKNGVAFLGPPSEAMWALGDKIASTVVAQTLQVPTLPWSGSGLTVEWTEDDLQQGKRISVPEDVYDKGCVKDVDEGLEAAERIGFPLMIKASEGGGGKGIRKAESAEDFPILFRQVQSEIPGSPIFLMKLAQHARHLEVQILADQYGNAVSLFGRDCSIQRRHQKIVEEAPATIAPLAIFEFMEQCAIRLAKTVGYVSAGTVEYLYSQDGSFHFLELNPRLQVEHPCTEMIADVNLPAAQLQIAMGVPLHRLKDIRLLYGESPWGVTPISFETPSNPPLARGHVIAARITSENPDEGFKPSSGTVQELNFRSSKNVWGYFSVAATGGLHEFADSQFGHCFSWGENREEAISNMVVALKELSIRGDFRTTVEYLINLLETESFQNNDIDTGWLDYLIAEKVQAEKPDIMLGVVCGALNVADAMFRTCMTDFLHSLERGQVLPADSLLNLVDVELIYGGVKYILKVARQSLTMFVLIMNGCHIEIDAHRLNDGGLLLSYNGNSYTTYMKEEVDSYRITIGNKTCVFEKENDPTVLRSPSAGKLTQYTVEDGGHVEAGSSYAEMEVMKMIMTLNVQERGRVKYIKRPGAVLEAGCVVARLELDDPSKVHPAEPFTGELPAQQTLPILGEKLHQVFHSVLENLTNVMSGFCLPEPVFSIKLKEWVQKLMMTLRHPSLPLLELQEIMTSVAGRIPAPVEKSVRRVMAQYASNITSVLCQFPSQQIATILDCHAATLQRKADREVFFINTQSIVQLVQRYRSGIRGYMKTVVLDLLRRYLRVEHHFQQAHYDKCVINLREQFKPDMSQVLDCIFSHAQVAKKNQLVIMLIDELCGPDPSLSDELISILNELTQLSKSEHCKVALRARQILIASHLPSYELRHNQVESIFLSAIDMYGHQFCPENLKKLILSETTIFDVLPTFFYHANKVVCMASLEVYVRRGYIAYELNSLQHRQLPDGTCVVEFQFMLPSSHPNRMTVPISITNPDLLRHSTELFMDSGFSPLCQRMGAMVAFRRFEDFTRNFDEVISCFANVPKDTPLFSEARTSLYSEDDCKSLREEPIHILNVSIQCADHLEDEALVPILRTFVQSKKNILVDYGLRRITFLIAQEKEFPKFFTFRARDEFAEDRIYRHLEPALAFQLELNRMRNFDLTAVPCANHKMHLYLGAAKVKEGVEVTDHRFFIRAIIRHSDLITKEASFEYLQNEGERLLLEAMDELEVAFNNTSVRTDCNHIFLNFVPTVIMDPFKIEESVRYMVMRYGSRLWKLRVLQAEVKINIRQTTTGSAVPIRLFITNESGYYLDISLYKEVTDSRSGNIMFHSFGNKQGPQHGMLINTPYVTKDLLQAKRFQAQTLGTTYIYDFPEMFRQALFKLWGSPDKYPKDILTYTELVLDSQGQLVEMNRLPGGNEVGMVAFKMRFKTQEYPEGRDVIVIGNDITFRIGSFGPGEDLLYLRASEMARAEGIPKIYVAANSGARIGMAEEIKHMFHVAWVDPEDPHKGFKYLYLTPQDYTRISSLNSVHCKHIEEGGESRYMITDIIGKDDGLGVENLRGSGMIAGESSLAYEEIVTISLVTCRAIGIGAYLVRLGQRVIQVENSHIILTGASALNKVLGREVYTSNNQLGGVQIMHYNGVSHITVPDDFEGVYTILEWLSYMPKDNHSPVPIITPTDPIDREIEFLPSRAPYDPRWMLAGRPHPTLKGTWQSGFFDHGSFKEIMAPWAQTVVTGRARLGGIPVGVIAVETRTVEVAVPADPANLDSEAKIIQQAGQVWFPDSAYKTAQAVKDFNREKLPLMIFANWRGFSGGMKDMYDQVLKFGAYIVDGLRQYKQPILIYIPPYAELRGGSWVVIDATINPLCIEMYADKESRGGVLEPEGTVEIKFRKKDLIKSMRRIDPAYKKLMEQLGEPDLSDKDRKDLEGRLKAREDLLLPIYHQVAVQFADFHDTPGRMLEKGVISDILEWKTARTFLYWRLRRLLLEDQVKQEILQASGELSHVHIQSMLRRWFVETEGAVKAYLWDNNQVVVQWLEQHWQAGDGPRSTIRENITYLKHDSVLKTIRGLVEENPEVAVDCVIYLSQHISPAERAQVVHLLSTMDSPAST
Structure (SMILES),IC50 [1] [nM],IC50 [2] [nM]
"Cc1c(-c2ncco2)sc2c1c(=O)n(C(C)(C)C(N)=O)c(=O)n2C[C@H](OC(C)C)c1ccccc1 [I-121, 2-methyl-2-[5-methyl-6-(1,3-oxazol-2-yl)-2,4-dioxo-1-[(2R)-2-phenyl-2-(propan-2-yloxy)ethyl]-1H,2H,3H,4H-thieno[2,3-d]pyrimidin-3-yl]propanamide]",< 1000,< 1000
"COc1ccccc1[C@H](Cn1c(=O)n(C(C)(C)C(=O)NC(C)C)c(=O)c2c(C)c(-c3ncco3)sc21)OC(C)C [I-242, 2-[1-[(2R)-2-(2-methoxyphenyl)-2-(propan-2-yloxy)ethyl]-5-methyl-6-(1,3-oxazol-2-yl)-2,4-dioxo-1H,2H,3H,4H-thieno[2,3-d]pyrimidin-3-yl]-2-methyl-N-(propan-2-yl)propanamide]",< 100,< 100
"Cc1c(-c2ncco2)sc2c1c(=O)n(C(C)(C)C(N)=O)c(=O)n2C[C@H](OC1CCOCC1)c1ccccc1OC(F)F [I-274, 2-[1-[(2R)-2-[2-(difluoromethoxy)phenyl]-2-(oxan-4-yloxy)ethyl]-5-methyl-6-(1,3-oxazol-2-yl)-2,4-dioxo-1H,2H,3H,4H-thieno[2,3-d]pyrimidin-3-yl]-2-methylpropanamide]",< 100,< 100
"CCOC(=O)c1sc2c(c1C)c(=O)n(CC(=O)O)c(=O)n2CCc1ccccc1F [I-32, 2-[6-(ethoxycarbonyl)-1-[2-(2-fluorophenyl)ethyl]-5-methyl-2,4-dioxo-1H,2H,3H,4H-thieno[2,3-d]pyrimidin-3-yl]acetic acid]",< 5000,< 5000
"Cc1c(-c2ncco2)sc2c1c(=O)n(C(C)(C)C(=O)O)c(=O)n2C[C@H](OC1CCOCC1)c1ccccc1OC(F)F [I-264, 2-[1-[(2R)-2-[2-(difluoromethoxy)phenyl]-2-(oxan-4-yloxy)ethyl]-5-methyl-6-(1,3-oxazol-2-yl)-2,4-dioxo-1H,2H,3H,4H-thieno[2,3-d]pyrimidin-3-yl]-2-methylpropanoic acid]",< 100,< 100
"CCOC(=O)c1sc2c(c1C)c(=O)n(C(C)(C)C(=O)O)c(=O)n2C[C@H](OC(C)CC)c1ccccc1 (stereo in doubt) [I-131, 2-[1-[(2R)-2-[(2R)-butan-2-yloxy]-2-phenylethyl]-6-(ethoxycarbonyl)-5-methyl-2,4-dioxo-1H,2H,3H,4H-thieno[2,3-d]pyrimidin-3-yl]-2-methylpropanoic acid]",< 1000,< 1000
CCOC(=O)c1sc2c(c1C)c(=O)n(CCO)c(=O)n2CCc1ccccc1 [I-1],5000 to 20000,< 5000
"CCCc1ccccc1CCn1c(=O)n(C(C)(C)C(=O)O)c(=O)c2c(C)c(-c3ncco3)sc21 [I-147, 2-methyl-2-[5-methyl-6-(1,3-oxazol-2-yl)-2,4-dioxo-1-[2-(2-propylphenyl)ethyl]-1H,2H,3H,4H-thieno[2,3-d]pyrimidin-3-yl]propanoic acid]",< 1000,< 1000
"COc1ccccc1[C@H](Cn1c(=O)n(C(C)(C)C(=O)N2CCCCC2)c(=O)c2c(C)c(-c3ncco3)sc21)OC(C)C [I-239, 1-[(2R)-2-(2-methoxyphenyl)-2-(propan-2-yloxy)ethyl]-5-methyl-3-[2-methyl-1-oxo-1-(piperidin-1-yl)propan-2-yl]-6-(1,3-oxazol-2-yl)-1H,2H,3H,4H-thieno[2,3-d]pyrimidine-2,4-dione]",< 100,< 100
"COc1ccccc1[C@H](Cn1c(=O)n(C(C)(C)CO)c(=O)c2c(C)c(-c3ncco3)sc21)OC1CCOCC1 [I-290, 3-(1-hydroxy-2-methylpropan-2-yl)-1-[(2R)-2-(2-methoxyphenyl)-2-(oxan-4-yloxy)ethyl]-5-methyl-6-(1,3-oxazol-2-yl)-1H,2H,3H,4H-thieno[2,3-d]pyrimidine-2,4-dione]",< 100,< 100
CCOC(=O)c1sc2c(c1C)c(=O)n(CC(=O)O)c(=O)n2CCc1ccccc1 [I-13],< 5000,< 5000
"CCOC(=O)c1sc2c(c1C)c(=O)n(C(C)(C)C(=O)O)c(=O)n2CCc1ccccc1OC [I-93, 2-[6-(ethoxycarbonyl)-1-[2-(2-methoxyphenyl)ethyl]-5-methyl-2,4-dioxo-1H,2H,3H,4H-thieno[2,3-d]pyrimidin-3-yl]-2-methylpropanoic acid]",< 1000,< 1000
"COc1ccccc1[C@H](Cn1c(=O)n(CC(C)(C)O)c(=O)c2c(C)c(-c3ncco3)sc21)OC1CCOCC1 [I-287, 3-(2-hydroxy-2-methylpropyl)-1-[(2R)-2-(2-methoxyphenyl)-2-(oxan-4-yloxy)ethyl]-5-methyl-6-(1,3-oxazol-2-yl)-1H,2H,3H,4H-thieno[2,3-d]pyrimidine-2,4-dione]",< 100,< 100
"Cc1c(-c2ncco2)sc2c1c(=O)n(C(C)(C)C(=O)O)c(=O)n2C[C@H](OC(C)C)c1ccccc1OC(F)F [I-267, 2-[1-[(2R)-2-[2-(difluoromethoxy)phenyl]-2-(propan-2-yloxy)ethyl]-5-methyl-6-(1,3-oxazol-2-yl)-2,4-dioxo-1H,2H,3H,4H-thieno[2,3-d]pyrimidin-3-yl]-2-methylpropanoic acid]",< 100,< 100
"CCOc1ccccc1CCn1c(=O)n(C(C)(C)C(N)=O)c(=O)c2c(C)c(-c3ncco3)sc21 [I-139, 2-[1-[2-(2-ethoxyphenyl)ethyl]-5-methyl-6-(1,3-oxazol-2-yl)-2,4-dioxo-1H,2H,3H,4H-thieno[2,3-d]pyrimidin-3-yl]-2-methylpropanamide]",< 1000,< 1000
"CCOC(=O)c1sc2c(c1C)c(=O)n(CC(=O)O)c(=O)n2CCc1c(F)cccc1F [I-33, 2-[1-[2-(2,6-difluorophenyl)ethyl]-6-(ethoxycarbonyl)-5-methyl-2,4-dioxo-1H,2H,3H,4H-thieno[2,3-d]pyrimidin-3-yl]acetic acid]",5000 to 20000,5000 to 20000
"CCOC(=O)c1sc2c(c1C)c(=O)n(CCO)c(=O)n2CCc1ccccc1Cl [I-20, ethyl 1-[2-(2-chlorophenyl)ethyl]-3-(2-hydroxyethyl)-5-methyl-2,4-dioxo-1H,2H,3H,4H-thieno[2,3-d]pyrimidine-6-carboxylate]",< 5000,5000 to 20000
"CCOC(=O)c1sc2c(c1C)c(=O)n(CC(=O)O)c(=O)n2CC(OC(C)C)c1ccccc1 (stereo in doubt) [I-96, (S)-2-(6-(ethoxycarbonyl)-1-(2-isopropoxy-2-phenylethyl)-5-methyl-2,4-dioxo-1,2-dihydrothieno[2,3-d]pyrimidin-3(4H)-yl)acetic acid]",5000 to 20000,< 100
"CCOC(=O)c1sc2c(c1C)c(=O)n(CC(=O)O)c(=O)n2CC(OC(C)C)c1ccccc1 (stereo not drawn) [I-89, 2-[6-(ethoxycarbonyl)-5-methyl-2,4-dioxo-1-[2-phenyl-2-(propan-2-yloxy)ethyl]-1H,2H,3H,4H-thieno[2,3-d]pyrimidin-3-yl]acetic acid]",< 1000,< 1000
"Cc1c(-c2ncco2)sc2c1c(=O)n(C(C)(C)C(N)=O)c(=O)n2C[C@H](OC(C)C)c1ccccc1OC(F)F [I-268, 2-[1-[(2R)-2-[2-(difluoromethoxy)phenyl]-2-(propan-2-yloxy)ethyl]-5-methyl-6-(1,3-oxazol-2-yl)-2,4-dioxo-1H,2H,3H,4H-thieno[2,3-d]pyrimidin-3-yl]-2-methylpropanamide]",< 100,< 100
"CCOC(=O)c1sc2c(c1C)c(=O)n(C(C)(C)C(=O)O)c(=O)n2C[C@H](OC)c1ccccc1 [I-110, 2-[6-(ethoxycarbonyl)-1-[(2R)-2-methoxy-2-phenylethyl]-5-methyl-2,4-dioxo-1H,2H,3H,4H-thieno[2,3-d]pyrimidin-3-yl]-2-methylpropanoic acid]",< 1000,< 1000
"CCOC(=O)c1sc2c(c1C)c(=O)n(CCCO)c(=O)n2CCc1ccccc1 [I-19, ethyl 3-(3-hydroxypropyl)-5-methyl-2,4-dioxo-1-(2-phenylethyl)-1H,2H,3H,4H-thieno[2,3-d]pyrimidine-6-carboxylate]",5000 to 20000,< 5000
CCOC(=O)c1sc2c(c1C)c(=O)n(CCS(C)(=O)=O)c(=O)n2CCc1ccccc1 [I-52],> 50000,> 50000
"COc1ccccc1[C@H](Cn1c(=O)n(CC(=O)O)c(=O)c2c(C)c(-c3ncco3)sc21)OC1CCOCC1 [I-286, 2-[1-[(2R)-2-(2-methoxyphenyl)-2-(oxan-4-yloxy)ethyl]-5-methyl-6-(1,3-oxazol-2-yl)-2,4-dioxo-1H,2H,3H,4H-thieno[2,3-d]pyrimidin-3-yl]acetic acid]",< 100,< 100
"Cc1c(-c2ncco2)sc2c1c(=O)n(C(C)(C)C(=O)O)c(=O)n2C[C@H](OC[C@@H](C)O)c1ccccc1 [I-179, 2-[1-[(2R)-2-[(2R)-2-hydroxypropoxy]-2-phenylethyl]-5-methyl-6-(1,3-oxazol-2-yl)-2,4-dioxo-1H,2H,3H,4H-thieno[2,3-d]pyrimidin-3-yl]-2-methylpropanoic acid]",< 100,< 100
"Cc1c(-c2ncco2)sc2c1c(=O)n(C(C)(C)C(=O)O)c(=O)n2C[C@H](O[C@H]1CC[C@@H](O)CC1)c1ccccc1OC(C)C [I-295, 2-(1-((R)-2-(((1s,4S)-4-hydroxycyclohexyl)oxy)-2-(2-isopropoxyphenyl)ethyl)-5-methyl-6-(oxazol-2-yl)-2,4-dioxo-1,2-dihydrothieno[2,3-d]pyrimidin-3(4H)-yl)-2-methylpropanoic]",< 100,< 100
"CCO[C@@H](Cn1c(=O)n(C(C)(C)C(=O)O)c(=O)c2c(C)c(-c3ncco3)sc21)c1ccccc1OC [I-243, 2-[1-[(2R)-2-ethoxy-2-(2-methoxyphenyl)ethyl]-5-methyl-6-(1,3-oxazol-2-yl)-2,4-dioxo-1H,2H,3H,4H-thieno[2,3-d]pyrimidin-3-yl]-2-methylpropanoic acid]",< 100,< 100
